The values below come from paper PMC6593233 (Frontiers in Pharmacology, 2019).

“Also recorded” adds a separate entry of the source. Where two headings read alike, the source gives them in different places. Some results are limits rather than exact numbers.

For data set [1], the system named is isolated guinea pig hearts. Kind of data set: Isolated Langendorff-perfused guinea pig hearts: AERP, QTcB, heart rate. On the procedure: AP14145 was supplied by Acesion Pharma. Dofetilide was purchased at Sigma-Aldrich (St. Louis, USA) for the Langendorff and Hello Bio (Bristol, UK) for the closed chest in vivo experiments. Ondansetron was purchased at Sigma-Aldrich (St. Louis, USA). For the Langendorff perfused heart experiments the compounds were dissolved in DMSO to make stock solutions and diluted to the final concentration in the Krebs-Henseleit buffer during the experiments. The final concentration of DMSO never exceeded 0.3% in the buffer. For the closed chest experiments, the compounds were first dissolved in PEG-400 and then diluted to a 50% saline and 50% PEG-400 solution. The Langendorff perfused heart experiments were performed using a total of 24 female Dunkin Hartley guinea pigs (350–450 g, Charles River, Saint-Germain-Nuelle, France). Guinea pigs were anesthetized with an i.p. injection of pentobarbital 200 mg/ml, lidocaine hydrochloride 20 mg/ml, (Glostrup Apotek, Denmark), dose 0.150 ml/100 g body weight. A tracheotomy was performed and the guinea pigs were ventilated with 60 strokes*5 ml/min using a rodent ventilator (7025 Rodent ventilator, Ugo Basile, Italy). The hearts were excised and cannulated in situ through a small puncture of the aorta and connected to the Langendorff retrograde perfusion setup (Hugo Sachs Elektronik, Harvard Apparatus GmbH, March, Germany). The hearts were retrogradely perfused at a constant perfusion pressure of 60 mmHg at 37°C, pH 7.4, Krebs-Henseleit buffer (in mM: […] The aortic perfusion pressure was determined with an ISOTEC transducer (Hugo Sachs Elektronik) and the coronary flow was measured with an ultrasonic flow meter (Transonic Systems Inc., USA). Both were connected to an amplifier (Hugo Sachs Elektronik). The electrical activity was measured using volume conducted ECGs and by placing epicardial monophasic action potential electrodes (MAPs) on the atria and ventricles. The hearts were immersed into a temperature-controlled bath containing pH 7.4 Krebs-Henseleit buffer. Perfusion pressure, coronary flow, ECG, and MAP analogue signals sampled at a frequency of 2k/s and converted by a 16/30 data acquisition system from PowerLab systems (ADInstruments, Oxford, UK) and monitored using LabChart 7 software (ADInstruments). A bipolar pacing electrode was placed on the right atrial appendage for epicardial pacing stimulation using square pulses of 2 ms durations at three times diastolic threshold at 300 beats per minute. During the entire experiment, the ECG was monitored and monophasic action potential electrodes were placed on each chamber of the heart. The hearts were then left to stabilize for 20 min at intrinsic heart rhythm. The right AERP was measured by 10 regular stimuli (S1) followed by a premature extra stimulus (S2) applied with 1-ms increments. The AERP was defined as the longest S1–S2 interval failing to elicit an action potential. […] After a period of stabilization, every Langendorff experiment consisted of four 20-min episodes ( Figure 1 ). […] During the entire experiment, the AERP was measured every 5 min and the ECG was continuously monitored.

The next data set concerns guinea pigs. The experiment in a line: In vivo closed chest atrially paced guinea pig model: AERP, QTcB, heart rate. The method, then:
AP14145 was supplied by Acesion Pharma. […] For the Langendorff perfused heart experiments the compounds were dissolved in DMSO to make stock solutions and diluted to the final concentration in the Krebs-Henseleit buffer during the experiments. The final concentration of DMSO never exceeded 0.3% in the buffer. For the closed chest experiments, the compounds were first dissolved in PEG-400 and then diluted to a 50% saline and 50% PEG-400 solution. A total of 18 female guinea pigs (Dunkin Hartley HsdPoc : GH, Charles River) weighing 350-450 g were anesthetized with 5% isoflurane/oxygen in a sedation box. The guinea pigs were placed under artificial ventilation through a cannula placed in the trachea and anesthesia was reduced to 2.5% isoflurane/oxygen throughout the experiment. The temperature of the guinea pigs was monitored with a rectal thermometer and kept stable during the experiment using a heating lamp. Needle ECG electrodes were placed in each limb for ECG recordings (ADInstruments, UK). An electrophysiological catheter with eight electrodes (EPR-802) (Millar Inc., US) was placed in the right atrium via the right jugular vein. The two electrodes proximal to the tip of the catheter ([[…] et al., 2006]; [[…] et al., 2012]) were used to pace the atrium and six electrodes ([Waldo et al., 1996]; [[…] et al., 2003]; [Roukoz and […] et al., 2009]; [Grunnet et al., 2012]; [Zimetbaum, 2012]) were used to measure the electrical activity in the atrium. The AERP was measured as in the Langendorff experiments. Between the AERP recordings, the heart remained unpaced. An intravenous catheter (inside diameter 0.5, outside diameter 0.8 mm, Natsume Seisakusho, Japan) was placed in the right jugular vein alongside the electrophysiology catheter for drug infusion. […] First a period of 20 min baseline recording was conducted with AERP measurements every 5 min ( Figure 1 ). […] The AERP was measured every 5 min during baseline and every 2 min during and after infusion.

The target in data set [2] is T1, hKCa2.2 (Homo sapiens, UniProt Q9H2S1). Set-up: method as in Simó-Vicens et al., 2017b. The note with it: hKCa2.2, manual patch clamp; ref Simó-Vicens et al., 2017b; cited from earlier work. (In general: Patch clamp records ionic current or voltage across a cell membrane.)
Data set [3] has as its target T2, hKCa2.3 (Homo sapiens, UniProt Q9UGI6). Set-up: method as in Simó-Vicens et al., 2017b. The note with it: hKCa2.3, manual patch clamp; ref Simó-Vicens et al., 2017b; cited from earlier work.
For data set [4], the target named is T2, hKCa2.3. Particulars: hKCa2.3, automated patch clamp, cited from earlier work.
In data set [5] the target is T3, hKv11.1 (Homo sapiens, UniProt Q12809).
T3 construct: expressed in transfected cells
Set-up: method as in Diness et al., 2017. The note with it: hKv11.1, automated patch clamp; ref Diness et al., 2017; cited from earlier work.

The target of data set [6] is T1, hKCa2.2. Set-up: method as in Simó-Vicens et al., 2017a. Particulars: hKCa2.2, automated patch clamp; ref Simó-Vicens et al., 2017a; cited from earlier work.
For data set [7], the target named is T1, hKCa2.2. The experiment in a line: Manual whole-cell patch clamp, IKCa in HEK293 cells transiently transfected with hKCa2.2. It counts as cell-based. On the procedure:
These stock solutions were stored at −20°C and aliquots were solubilized at the desired concentration on the day of the experiment.
(§1) The KCa2.2 manual patch-clamp experiments and KCa2.2/KCa2.3 QPatch experiments were conducted using symmetrical K^+ solutions. The extracellular solution contained (in mM) 0.1 CaCl2, 3 MgCl2, 154 KCl, 10 HEPES, and 10 glucose (pH = 7.4 and 285–295 mOsm). The intracellular solution contained (in mM) 8.106 CaCl2 (final free Ca^2+ concentration of 400 nM), 1.167 MgCl2, 10 EGTA, 108 KCl, 10 HEPES, 31.25/10 KOH/EGTA, and 15 KOH (pH = 7.2).
The cells were cultured in Dulbecco’s modified Eagle’s medium (DMEM1965, Thermo Fisher, USA) supplemented with 26.2 mM NaHCO3, 25 mM HEPES, 10 ml L^-1 Glutamax (Gibco, USA), 10% fetal bovine serum (Biowest, France), and 100 U ml^-1 of penicillin/streptomycin (Sigma, Germany); 1 to 2 days after the transfection, patch clamp experiments were conducted. […]
Manual patch clamp recordings were made using a HEKA EPC9 amplifier and the PatchMaster software (HEKA Elektronik, Germany) at room temperature using the whole cell configuration. Fluorescence was used to detect successfully transfected cells. […]
(§2) For IKCa and IKr, the mean of the last three data points was used for further analysis. […] Individual IC50 values were calculated for each experiment and then used to obtain the final mean ± S.E.M.

For data set [8], the target named is T1, hKCa2.2. The experiment in a line: Automated patch clamp (QPatch), IKCa in HEK293 cells stably expressing hKCa2.2. Particulars: hKCa2.2, automated patch clamp, present study, n = 8. The class given is cell-based. The method, then:
as §1
(§3) Bicuculline methiodide was used as a positive control for KCa2 specific current at the beginning and the end of the experiment.
(§4) The cells were cultured in Dulbecco’s modified Eagle’s medium (DMEM1965, Thermo Fisher, USA) supplemented with 26.2 mM NaHCO3, 25 mM HEPES, 10 ml L^-1 Glutamax (Gibco, USA), 10% fetal bovine serum (Biowest, France), 100 U ml^-1 of penicillin/streptomycin (Sigma, Germany), and 100 µg/ml Geneticin (Gibco, UK) […]
as §2

Data set [9] deals with T2, hKCa2.3. Kind of data set: Automated patch clamp (QPatch), IKCa in HEK293 cells stably expressing hKCa2.3. The class given is cell-based. On the procedure:
as §1, §3, §4, §2

Data set [10] deals with T3, hKv11.1. Kind of data set: Automated patch clamp (QPatch), IKr in CHO-K1 cells stably expressing Kv11.1. It counts as cell-based. The note with it: Kv11.1 current.
Protocol: For the Kv11.1 experiments conducted on the automated QPatch machine, the extracellular solution contained (in mM) 145 NaCl, 4 KCl, 2 CaCl2, 1 MgCl2, 10 HEPES, and 10 glucose (pH = 7.4 and 305 mOsm adjusted with sucrose). The intracellular solution contained (in mM) 120 KCl, 31.25/10 KOH/EGTA, 5.4 CaCl2, 1.75 MgCl2, 4 mM Na2ATP, and 10 HEPES (pH = 7.2 and 285–296 mOsm adjusted with sucrose). Recordings were made before and after application of drug.
The cells were cultured in DMEM F12 (Sigma, Germany), 10% fetal bovine serum (Biowest, France) and 100 U ml^-1 of penicillin/streptomycin (Sigma, Germany), 100 µg/ml Geneticin (Gibco, UK), 100 µg/ml hygromycin (Sigma-Aldrich), and 2 mM glutamine (Gibco, UK).
On the day of experiment, when cells reached about 70–90% confluency, they were detached with Detachin (Genlantis, USA) and resuspended in serum free medium (C5467 SAFC, Switzerland) containing 25 mM HEPES, 0.04 mg/ml soy bean trypsin inhibitor (T6522 Sigma-Aldrich), and 100 U/ml penicillin/streptomycin and were kept in suspension for QPatch experiments.
Automated patch-clamp whole-cell recordings were performed using a QPatch 16 HT system and disposable single-hole QPlates (Sophion, Denmark). […]

T3 sequence (Q12809 whole entry): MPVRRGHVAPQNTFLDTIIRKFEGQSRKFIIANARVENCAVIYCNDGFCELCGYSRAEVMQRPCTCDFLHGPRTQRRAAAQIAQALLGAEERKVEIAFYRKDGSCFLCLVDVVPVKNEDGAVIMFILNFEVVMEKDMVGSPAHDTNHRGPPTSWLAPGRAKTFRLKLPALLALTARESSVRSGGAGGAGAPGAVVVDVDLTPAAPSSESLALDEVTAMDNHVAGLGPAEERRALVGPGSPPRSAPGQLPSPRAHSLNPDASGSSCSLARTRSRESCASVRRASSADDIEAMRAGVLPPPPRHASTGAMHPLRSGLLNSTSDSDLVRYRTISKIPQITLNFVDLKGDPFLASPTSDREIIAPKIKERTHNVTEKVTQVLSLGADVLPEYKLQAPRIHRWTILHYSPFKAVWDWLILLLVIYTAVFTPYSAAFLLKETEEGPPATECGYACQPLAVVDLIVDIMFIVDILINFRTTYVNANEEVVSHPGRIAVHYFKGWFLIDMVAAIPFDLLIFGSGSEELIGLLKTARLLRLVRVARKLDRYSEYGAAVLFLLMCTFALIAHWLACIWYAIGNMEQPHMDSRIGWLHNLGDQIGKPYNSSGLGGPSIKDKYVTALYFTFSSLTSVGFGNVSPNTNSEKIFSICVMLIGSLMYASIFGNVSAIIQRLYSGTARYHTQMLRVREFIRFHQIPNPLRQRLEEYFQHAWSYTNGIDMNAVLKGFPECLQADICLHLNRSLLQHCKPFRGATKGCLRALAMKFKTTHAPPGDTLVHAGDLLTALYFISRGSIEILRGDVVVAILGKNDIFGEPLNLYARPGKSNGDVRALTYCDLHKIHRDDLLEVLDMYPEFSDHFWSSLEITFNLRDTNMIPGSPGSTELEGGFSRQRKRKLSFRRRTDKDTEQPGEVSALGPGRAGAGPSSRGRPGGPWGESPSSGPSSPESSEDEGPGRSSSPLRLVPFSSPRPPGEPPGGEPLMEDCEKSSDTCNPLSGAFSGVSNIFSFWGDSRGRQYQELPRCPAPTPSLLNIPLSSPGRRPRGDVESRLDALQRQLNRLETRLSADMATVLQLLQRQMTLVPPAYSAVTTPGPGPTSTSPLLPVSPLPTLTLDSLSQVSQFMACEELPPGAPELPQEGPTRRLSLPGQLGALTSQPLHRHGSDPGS

As to `CC(=O)Nc1cccc2[nH]c(N[C@H](C)c3cccc(C(F)(F)F)c3)nc12` [AP14145], the AERP in [1] (10 µM, end of wash-in, TMC 61 ± 5 ms) came out at 77 ± 2 ms; in the data set on guinea pigs (after 6 min of i.v. infusion (4 mg/kg given), TMC 72 ± 2 ms), 97 ± 6 ms. For the same molecule, the “AERP (maximum)” value in [1] (30 µM, TMC 64 ± 6 ms) is on record as 93 ± 2 ms. Also, the “AERP (maximum during infusion)” value in the data set on guinea pigs (13.3 mg/kg infused over 20 min, TMC 75 ± 3 ms) is listed as 113 ± 6 ms. Besides, the IC50 (as a rule, the concentration at which inhibition is half-maximal) is 1.1 µM at hKCa2.2 [2]; 1.1 µM on hKCa2.3 [3]; 1.3 µM at hKCa2.3 [4] (ref Diness et al., 2017); 71.8 µM at hKv11.1 [5].

In the case of `CN(CCOc1ccc(NS(C)(=O)=O)cc1)CCc1ccc(NS(C)(=O)=O)cc1` [Dofetilide], the “HR, % of baseline values” in data set [1] (10 nM, TMC 94 ± 4%) is 83 ± 3%; in data set [1] (30 nM, TMC 91 ± 4%) it was 80 ± 3%. The QTcB is given as 306 ± 9 ms in [1] (10 nM, TMC 271 ± 5 ms); 313 ± 9 ms in data set [1] (30 nM, TMC 269 ± 6 ms); 319 ± 11 ms with guinea pigs (after 5 min of infusion, 0.01 mg/kg over 20 min, TMC 280 ± 9 ms). In addition, in data set [1] (30 nM, TMC 64 ± 6 ms), the AERP is listed as 80 ± 4 ms. In the data set with guinea pigs (0.01 mg/kg infused over 20 min), the “Effect on AERP” value is “No effect on AERP”. The “HR, % of the baseline average” value in the data set on guinea pigs (0.01 mg/kg, minimum, 5 min after end of infusion, TMC 93 ± 2%) was determined as 82 ± 3%. In addition, the IC50 was 60 µM on hKCa2.2 [6] and 90 µM at hKCa2.3 [4] (ref Simó-Vicens et al., 2017a).

Take `Cc1nccn1CC1CCc2c(c3ccccc3n2C)C1=O` (stereo not drawn) [Ondansetron]: the “Effect on IKCa” value is listed as “failed to inhibit IKCa; also recorded: did not inhibit IKCa” on hKCa2.2 [7] (1 µM, hKCa2.2-expressing HEK cells, 400 nM intracellular calcium, n = 5) and “did not inhibit IKCa” on hKCa2.3 [9] (up to 30 µM, hKCa2.3 current). Besides, the IC50 on hKCa2.2 [7] (hKCa2.2, manual patch clamp, present study) is more than 1 µM; against hKCa2.2 [8], more than 30 µM; on hKCa2.3 [9] (hKCa2.3, automated patch clamp, present study, n = 8), more than 30 µM. Moreover, on hKv11.1 [10], the “Concentration from which IKr is blocked” value is not below 3000 nM. Further, the QTcB in [1] (3 µM, TMC 269 ± 6 ms) is 294 ± 5 ms. In addition, the “Effect on AERP compared to TMC” value in data set [1] (concentrations up to 3µM) is given as “did not affect AERP significantly”. In addition, the “Effect on HR compared to TMC” value in [1] (concentrations up to 3µM) is recorded as “did not significantly affect HR”.
